# Legend:
# Assay in all cases: radiometric filter-binding kinase assay, Kinase HotSpot
# Conditions in all cases: compound 0.5 µM; ATP 10 µM
# CSNK1G1 (human) = CSNK1G1 (human) (UniProt Q9HCP0)
# NEK3 (human) = NEK3 (human) (UniProt P51956)
# MAP4K2 (human) = MAP4K2 (human) (UniProt Q12851)
# DYRK2 (human) = DYRK2 (human) (UniProt Q92630)
# PRKCI (human) = PRKCI (human) (UniProt P41743)
# MAP3K5 (human) = MAP3K5 (human) (UniProt Q99683)
# CAMKK1 (human) = CAMKK1 (human) (UniProt Q8N5S9)
# SYK (human) = SYK (human) (UniProt P43405)
# AKT1 (human) = AKT1 (human) (UniProt P31749)
# PRKCB1 (human) = PRKCB1 (human) (UniProt P05771)
# MARK3 (human) = MARK3 (human) (UniProt P27448)
# RPS6KA4 KD2 (human) = RPS6KA4 KD2 (human) (UniProt O75676)
# CSNK1A1 (human) = CSNK1A1 (human) (UniProt P48729)
# RPS6KA5 KD2 (human) = RPS6KA5 KD2 (human) (UniProt O75582)
# PRKX (human) = PRKX (human) (UniProt P51817)
# NEK11 (human) = NEK11 (human) (UniProt Q8NG66)
# INSRR (human) = INSRR (human) (UniProt P14616)
# FLT3 (human) = FLT3 (human) (UniProt P36888)
# PRKCE (human) = PRKCE (human) (UniProt Q02156)
# LIMK1 (human) = LIMK1 (human) (UniProt P53667)
# EPHB3 (human) = EPHB3 (human) (UniProt P54753)
# IRAK1 (human) = IRAK1 (human) (UniProt P51617)
# EPHB1 (human) = EPHB1 (human) (UniProt P54762)
# SRC (human) = SRC (human) (UniProt P12931)
# NEK1 (human) = NEK1 (human) (UniProt Q96PY6)
# IRAK4 (human) = IRAK4 (human) (UniProt Q9NWZ3)
# FER (human) = FER (human) (UniProt P16591)
# EPHA5 (human) = EPHA5 (human) (UniProt P54756)
# PIM1 (human) = PIM1 (human) (UniProt P11309)
# ADRBK2 (human) = ADRBK2 (human) (UniProt P35626)
# CDK3 CCNE1 (human) = CDK3 CCNE1 (human) (UniProt Q00526+P24864)
# YES1 (human) = YES1 (human) (UniProt P07947)
# CLK3 (human) = CLK3 (human) (UniProt P49761)
# PRKD1 (human) = PRKD1 (human) (UniProt Q15139)
# NEK6 (human) = NEK6 (human) (UniProt Q9HC98)
# SRPK1 (human) = SRPK1 (human) (UniProt Q96SB4)
# PDGFRB (human) = PDGFRB (human) (UniProt P09619)
# GRK6 (human) = GRK6 (human) (UniProt P43250)
# TSSK2 (human) = TSSK2 (human) (UniProt Q96PF2)
# NLK (human) = NLK (human) (UniProt Q9UBE8)
# MAPK10 (human) = MAPK10 (human) (UniProt P53779)
# RIPK2 (human) = RIPK2 (human) (UniProt O43353)
# Chain of EPHB3 (human) (P54753 whole entry, looked up): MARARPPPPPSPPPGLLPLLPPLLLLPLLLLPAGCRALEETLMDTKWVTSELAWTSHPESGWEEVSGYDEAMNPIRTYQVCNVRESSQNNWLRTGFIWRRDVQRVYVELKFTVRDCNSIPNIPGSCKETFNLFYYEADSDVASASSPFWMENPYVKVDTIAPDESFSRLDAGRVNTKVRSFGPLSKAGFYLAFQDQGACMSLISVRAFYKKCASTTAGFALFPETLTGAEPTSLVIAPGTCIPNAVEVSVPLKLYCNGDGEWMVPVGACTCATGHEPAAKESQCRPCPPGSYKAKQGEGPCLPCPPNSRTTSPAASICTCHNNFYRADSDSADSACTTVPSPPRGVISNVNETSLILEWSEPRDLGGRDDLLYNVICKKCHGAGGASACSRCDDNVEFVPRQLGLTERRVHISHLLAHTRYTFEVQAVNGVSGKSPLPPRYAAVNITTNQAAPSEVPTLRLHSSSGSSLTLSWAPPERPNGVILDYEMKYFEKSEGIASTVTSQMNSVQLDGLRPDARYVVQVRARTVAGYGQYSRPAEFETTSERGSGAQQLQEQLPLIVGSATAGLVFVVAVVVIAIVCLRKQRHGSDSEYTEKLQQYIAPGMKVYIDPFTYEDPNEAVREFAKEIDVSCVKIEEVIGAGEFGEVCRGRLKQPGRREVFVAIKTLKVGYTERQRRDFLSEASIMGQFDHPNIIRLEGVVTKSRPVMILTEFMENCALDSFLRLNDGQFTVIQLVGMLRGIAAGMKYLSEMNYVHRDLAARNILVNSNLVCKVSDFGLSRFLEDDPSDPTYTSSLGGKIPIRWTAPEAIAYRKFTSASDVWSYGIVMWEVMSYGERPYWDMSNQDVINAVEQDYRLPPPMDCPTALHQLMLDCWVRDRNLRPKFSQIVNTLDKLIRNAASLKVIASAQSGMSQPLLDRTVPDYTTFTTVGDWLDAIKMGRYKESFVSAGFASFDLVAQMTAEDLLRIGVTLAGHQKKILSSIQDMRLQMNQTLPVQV
# Chain of MAP3K5 (human) (Q99683 whole entry, looked up): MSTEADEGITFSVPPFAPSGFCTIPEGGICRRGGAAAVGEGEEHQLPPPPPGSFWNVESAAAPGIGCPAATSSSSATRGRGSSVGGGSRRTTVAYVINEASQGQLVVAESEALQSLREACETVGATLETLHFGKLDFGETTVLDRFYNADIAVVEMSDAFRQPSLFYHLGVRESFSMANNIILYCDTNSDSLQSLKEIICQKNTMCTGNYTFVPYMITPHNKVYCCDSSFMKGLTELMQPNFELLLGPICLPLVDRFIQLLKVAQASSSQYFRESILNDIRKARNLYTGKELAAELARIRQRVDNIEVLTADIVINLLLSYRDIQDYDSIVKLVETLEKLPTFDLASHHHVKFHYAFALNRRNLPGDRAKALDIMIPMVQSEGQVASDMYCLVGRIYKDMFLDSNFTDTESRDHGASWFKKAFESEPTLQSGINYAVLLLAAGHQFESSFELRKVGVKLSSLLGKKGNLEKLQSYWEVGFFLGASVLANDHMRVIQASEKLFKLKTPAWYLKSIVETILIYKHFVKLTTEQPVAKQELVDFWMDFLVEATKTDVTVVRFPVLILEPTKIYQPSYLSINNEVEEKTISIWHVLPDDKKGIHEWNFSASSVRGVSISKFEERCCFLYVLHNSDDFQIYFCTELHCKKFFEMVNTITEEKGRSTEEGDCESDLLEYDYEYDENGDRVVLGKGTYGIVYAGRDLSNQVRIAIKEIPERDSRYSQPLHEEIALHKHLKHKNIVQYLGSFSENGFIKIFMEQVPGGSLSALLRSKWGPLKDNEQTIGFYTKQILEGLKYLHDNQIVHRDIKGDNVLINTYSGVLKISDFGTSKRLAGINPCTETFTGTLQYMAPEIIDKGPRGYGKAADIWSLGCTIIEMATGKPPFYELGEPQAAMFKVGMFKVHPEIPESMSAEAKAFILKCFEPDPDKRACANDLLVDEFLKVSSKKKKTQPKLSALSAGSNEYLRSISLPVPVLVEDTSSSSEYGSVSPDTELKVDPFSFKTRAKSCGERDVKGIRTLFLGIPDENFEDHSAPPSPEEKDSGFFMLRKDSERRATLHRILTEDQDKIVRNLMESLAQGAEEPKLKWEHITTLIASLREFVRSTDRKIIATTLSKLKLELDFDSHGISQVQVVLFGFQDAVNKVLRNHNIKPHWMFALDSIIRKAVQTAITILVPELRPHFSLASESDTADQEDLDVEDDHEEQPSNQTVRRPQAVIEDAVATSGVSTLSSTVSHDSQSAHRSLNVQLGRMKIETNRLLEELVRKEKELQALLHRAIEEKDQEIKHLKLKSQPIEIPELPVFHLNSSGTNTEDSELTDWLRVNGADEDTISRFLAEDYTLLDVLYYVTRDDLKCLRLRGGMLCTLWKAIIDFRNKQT
# Chain of PRKCB1 (human) (P05771 whole entry, looked up): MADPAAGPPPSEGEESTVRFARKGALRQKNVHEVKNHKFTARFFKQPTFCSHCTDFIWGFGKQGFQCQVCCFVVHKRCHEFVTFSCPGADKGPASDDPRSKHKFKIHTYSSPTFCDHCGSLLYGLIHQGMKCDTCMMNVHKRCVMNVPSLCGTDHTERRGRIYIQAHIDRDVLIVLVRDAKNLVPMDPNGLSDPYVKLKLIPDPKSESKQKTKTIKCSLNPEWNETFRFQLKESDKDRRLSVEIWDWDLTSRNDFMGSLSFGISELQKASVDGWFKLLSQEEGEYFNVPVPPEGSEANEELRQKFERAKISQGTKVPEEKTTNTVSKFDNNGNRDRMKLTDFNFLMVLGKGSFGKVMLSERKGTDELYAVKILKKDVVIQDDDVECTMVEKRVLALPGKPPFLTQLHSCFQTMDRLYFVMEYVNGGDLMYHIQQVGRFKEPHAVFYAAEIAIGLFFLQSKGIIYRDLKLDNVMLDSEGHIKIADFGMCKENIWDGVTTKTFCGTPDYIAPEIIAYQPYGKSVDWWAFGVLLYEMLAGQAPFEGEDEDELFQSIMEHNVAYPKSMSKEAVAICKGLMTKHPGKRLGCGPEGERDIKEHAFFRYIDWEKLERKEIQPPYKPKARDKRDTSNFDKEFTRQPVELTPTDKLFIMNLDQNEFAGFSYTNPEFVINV
# Chain of RPS6KA4 KD2 (human) (O75676 whole entry, looked up): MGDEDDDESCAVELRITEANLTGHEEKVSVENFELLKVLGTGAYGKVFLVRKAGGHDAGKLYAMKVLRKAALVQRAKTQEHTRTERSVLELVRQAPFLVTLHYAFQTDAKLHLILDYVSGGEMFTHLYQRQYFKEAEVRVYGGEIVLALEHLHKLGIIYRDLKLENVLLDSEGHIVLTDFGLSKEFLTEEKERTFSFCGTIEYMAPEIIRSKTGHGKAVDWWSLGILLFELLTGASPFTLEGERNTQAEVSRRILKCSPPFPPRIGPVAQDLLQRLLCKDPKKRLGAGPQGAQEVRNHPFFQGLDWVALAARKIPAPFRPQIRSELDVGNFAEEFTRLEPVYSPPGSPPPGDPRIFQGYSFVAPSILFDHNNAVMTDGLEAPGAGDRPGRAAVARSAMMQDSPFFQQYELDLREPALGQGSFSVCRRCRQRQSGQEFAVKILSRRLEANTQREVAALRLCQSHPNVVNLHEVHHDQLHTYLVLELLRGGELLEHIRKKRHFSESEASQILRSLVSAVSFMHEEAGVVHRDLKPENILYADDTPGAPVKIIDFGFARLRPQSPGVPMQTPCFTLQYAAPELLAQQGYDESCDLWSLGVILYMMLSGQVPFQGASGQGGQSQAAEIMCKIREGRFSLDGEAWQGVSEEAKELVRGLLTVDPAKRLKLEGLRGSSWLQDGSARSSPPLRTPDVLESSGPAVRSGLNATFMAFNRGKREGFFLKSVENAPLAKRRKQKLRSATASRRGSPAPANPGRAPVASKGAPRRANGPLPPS
# Chain of NEK1 (human) (Q96PY6 whole entry, looked up): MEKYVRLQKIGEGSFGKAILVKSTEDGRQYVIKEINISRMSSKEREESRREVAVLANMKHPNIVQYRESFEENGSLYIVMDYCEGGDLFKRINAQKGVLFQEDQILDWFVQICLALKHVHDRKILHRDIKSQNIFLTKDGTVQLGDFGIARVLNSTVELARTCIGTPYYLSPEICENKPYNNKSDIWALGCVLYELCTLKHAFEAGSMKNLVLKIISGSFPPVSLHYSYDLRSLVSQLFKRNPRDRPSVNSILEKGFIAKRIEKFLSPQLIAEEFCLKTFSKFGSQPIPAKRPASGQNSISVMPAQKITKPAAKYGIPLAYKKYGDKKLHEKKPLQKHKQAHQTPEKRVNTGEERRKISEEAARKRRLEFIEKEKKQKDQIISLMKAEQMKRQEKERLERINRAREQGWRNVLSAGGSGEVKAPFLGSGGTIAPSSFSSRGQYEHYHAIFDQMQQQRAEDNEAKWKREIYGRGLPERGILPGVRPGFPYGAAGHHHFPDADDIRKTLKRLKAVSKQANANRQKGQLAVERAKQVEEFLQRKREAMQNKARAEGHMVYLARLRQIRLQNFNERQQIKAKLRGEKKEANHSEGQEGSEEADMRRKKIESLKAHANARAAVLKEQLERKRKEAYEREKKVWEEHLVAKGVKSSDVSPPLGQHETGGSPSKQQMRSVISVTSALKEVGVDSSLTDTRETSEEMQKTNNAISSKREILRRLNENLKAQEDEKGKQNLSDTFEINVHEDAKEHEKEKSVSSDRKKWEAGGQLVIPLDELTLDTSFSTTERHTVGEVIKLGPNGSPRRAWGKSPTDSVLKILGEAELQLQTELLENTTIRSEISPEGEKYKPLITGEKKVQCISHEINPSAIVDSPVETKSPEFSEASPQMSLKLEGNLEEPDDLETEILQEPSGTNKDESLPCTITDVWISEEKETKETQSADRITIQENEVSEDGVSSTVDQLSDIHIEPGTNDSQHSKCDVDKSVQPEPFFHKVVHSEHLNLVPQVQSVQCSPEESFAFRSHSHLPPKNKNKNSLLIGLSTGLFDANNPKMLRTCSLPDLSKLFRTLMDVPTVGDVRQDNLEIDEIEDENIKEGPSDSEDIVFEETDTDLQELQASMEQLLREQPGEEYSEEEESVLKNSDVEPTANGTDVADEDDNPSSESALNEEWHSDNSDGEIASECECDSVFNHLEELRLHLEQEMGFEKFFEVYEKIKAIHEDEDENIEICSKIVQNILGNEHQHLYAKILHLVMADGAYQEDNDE
smiles,measurement,setting,value
N#C/C(=C1/Nc2ccccc2S1)c1ccnc(NCCc2cccnc2)n1,residual activity,CSNK1G1 (human),88.8%
same,residual activity,NEK3 (human),87.9%
same,residual activity,MAP4K2 (human),76.9%
same,residual activity,DYRK2 (human),22.2%
same,residual activity,PRKCI (human),94.4%
same,residual activity,MAP3K5 (human),102%
same,residual activity,CAMKK1 (human),101%
same,residual activity,SYK (human),92.4%
same,residual activity,AKT1 (human),104%
same,residual activity,PRKCB1 (human),90.8%
same,residual activity,MARK3 (human),94.9%
same,residual activity,RPS6KA4 KD2 (human),107%
same,residual activity,CSNK1A1 (human),80%
same,residual activity,RPS6KA5 KD2 (human),98.9%
same,residual activity,PRKX (human),96.4%
same,residual activity,NEK11 (human),118%
same,residual activity,INSRR (human),92.2%
same,residual activity,FLT3 (human),58.2%
same,residual activity,PRKCE (human),92.1%
same,residual activity,LIMK1 (human),90.2%
same,residual activity,EPHB3 (human),91%
same,residual activity,IRAK1 (human),91.8%
same,residual activity,EPHB1 (human),90.9%
same,residual activity,SRC (human),86.8%
same,residual activity,NEK1 (human),70%
same,residual activity,IRAK4 (human),83.7%
same,residual activity,FER (human),91%
same,residual activity,EPHA5 (human),113%
same,residual activity,PIM1 (human),11.6%
same,residual activity,ADRBK2 (human),99.1%
same,residual activity,CDK3 CCNE1 (human),92.3%
same,residual activity,YES1 (human),89.1%
same,residual activity,CLK3 (human),88.5%
same,residual activity,PRKD1 (human),82.4%
same,residual activity,NEK6 (human),101%
same,residual activity,SRPK1 (human),97%
same,residual activity,PDGFRB (human),103%
same,residual activity,GRK6 (human),87.6%
same,residual activity,TSSK2 (human),102%
same,residual activity,NLK (human),94.9%
N/C(=N\N=C/c1ccc(-c2cccc([N+](=O)[O-])c2)o1)N[N+](=O)[O-],residual activity,CSNK1G1 (human),96.4%
same,residual activity,NEK3 (human),101%
same,residual activity,MAP4K2 (human),115%
same,residual activity,DYRK2 (human),93.1%
same,residual activity,PRKCI (human),92.3%
same,residual activity,MAP3K5 (human),92.5%
same,residual activity,CAMKK1 (human),106%
same,residual activity,SYK (human),91.8%
same,residual activity,AKT1 (human),99.7%
same,residual activity,PRKCB1 (human),88.9%
same,residual activity,MARK3 (human),107%
same,residual activity,RPS6KA4 KD2 (human),98.9%
same,residual activity,CSNK1A1 (human),113%
same,residual activity,RPS6KA5 KD2 (human),101%
same,residual activity,PRKX (human),97.8%
same,residual activity,NEK11 (human),110%
same,residual activity,INSRR (human),99.2%
same,residual activity,FLT3 (human),99.3%
same,residual activity,MAPK10 (human),87%
same,residual activity,PRKCE (human),90.5%
same,residual activity,LIMK1 (human),99.7%
same,residual activity,EPHB3 (human),91.7%
same,residual activity,EPHB1 (human),107%
same,residual activity,SRC (human),99%
same,residual activity,NEK1 (human),97.7%
same,residual activity,IRAK4 (human),87.3%
same,residual activity,FER (human),94.7%
same,residual activity,EPHA5 (human),100%
same,residual activity,PIM1 (human),92.9%
same,residual activity,RIPK2 (human),106%
same,residual activity,ADRBK2 (human),102%
same,residual activity,CDK3 CCNE1 (human),85%
same,residual activity,YES1 (human),95.6%
same,residual activity,CLK3 (human),97.7%
same,residual activity,PRKD1 (human),103%
same,residual activity,NEK6 (human),93.4%
same,residual activity,SRPK1 (human),94.9%
same,residual activity,PDGFRB (human),129%
same,residual activity,GRK6 (human),98.3%
same,residual activity,TSSK2 (human),101%
same,residual activity,NLK (human),103%
CCc1nc(-c2ccc(OC)cc2)[nH]c1-c1ccncc1,residual activity,CSNK1G1 (human),101%
same,residual activity,NEK3 (human),92.4%
same,residual activity,MAP4K2 (human),106%
same,residual activity,DYRK2 (human),85.8%
same,residual activity,PRKCI (human),101%
same,residual activity,MAP3K5 (human),105%
same,residual activity,CAMKK1 (human),122%
same,residual activity,SYK (human),98.7%
same,residual activity,PRKCB1 (human),104%
same,residual activity,MARK3 (human),101%
same,residual activity,RPS6KA4 KD2 (human),98.6%
same,residual activity,CSNK1A1 (human),99.4%
same,residual activity,RPS6KA5 KD2 (human),107%
same,residual activity,PRKX (human),93.3%
same,residual activity,NEK11 (human),77.4%
same,residual activity,INSRR (human),102%
same,residual activity,FLT3 (human),91.4%
same,residual activity,MAPK10 (human),100%
same,residual activity,PRKCE (human),101%
same,residual activity,LIMK1 (human),94.9%
same,residual activity,EPHB3 (human),107%
same,residual activity,IRAK1 (human),128%
same,residual activity,EPHB1 (human),104%
same,residual activity,SRC (human),95.3%
same,residual activity,NEK1 (human),98.9%
same,residual activity,IRAK4 (human),111%
same,residual activity,FER (human),96.4%
same,residual activity,EPHA5 (human),100%
same,residual activity,PIM1 (human),104%
same,residual activity,RIPK2 (human),95%
same,residual activity,ADRBK2 (human),98.4%
same,residual activity,CDK3 CCNE1 (human),97.9%
same,residual activity,YES1 (human),95.1%
same,residual activity,CLK3 (human),95.6%
same,residual activity,PRKD1 (human),100%
same,residual activity,NEK6 (human),95.3%
same,residual activity,SRPK1 (human),106%
same,residual activity,PDGFRB (human),105%
same,residual activity,TSSK2 (human),98.7%
same,residual activity,NLK (human),103%
CCCCc1c(-c2ccc(O)cc2)[nH]c2nccnc12,residual activity,CSNK1G1 (human),93.1%
same,residual activity,NEK3 (human),103%
same,residual activity,MAP4K2 (human),28.2%
same,residual activity,DYRK2 (human),93.1%
same,residual activity,PRKCI (human),99.4%
same,residual activity,MAP3K5 (human),99.3%
same,residual activity,CAMKK1 (human),89.7%
same,residual activity,SYK (human),53.5%
same,residual activity,PRKCB1 (human),95.5%
same,residual activity,MARK3 (human),88.2%
same,residual activity,RPS6KA4 KD2 (human),87.5%
same,residual activity,CSNK1A1 (human),92.9%
same,residual activity,RPS6KA5 KD2 (human),101%
same,residual activity,PRKX (human),110%
same,residual activity,NEK11 (human),92.5%
same,residual activity,INSRR (human),86.6%
same,residual activity,FLT3 (human),45.3%
same,residual activity,MAPK10 (human),100%
same,residual activity,PRKCE (human),107%
same,residual activity,LIMK1 (human),64.3%
same,residual activity,IRAK1 (human),63.4%
same,residual activity,EPHB1 (human),78%
same,residual activity,SRC (human),65.2%
same,residual activity,NEK1 (human),92.2%
same,residual activity,IRAK4 (human),159%
same,residual activity,FER (human),55.6%
same,residual activity,EPHA5 (human),96.4%
same,residual activity,PIM1 (human),83.8%
same,residual activity,RIPK2 (human),58.6%
same,residual activity,ADRBK2 (human),96.2%
same,residual activity,CDK3 CCNE1 (human),76.8%
same,residual activity,YES1 (human),46.5%
same,residual activity,CLK3 (human),121%
same,residual activity,PRKD1 (human),77.7%
same,residual activity,NEK6 (human),123%
same,residual activity,SRPK1 (human),101%
same,residual activity,PDGFRB (human),91.4%
same,residual activity,GRK6 (human),83.5%
same,residual activity,TSSK2 (human),96.7%
same,residual activity,NLK (human),90.3%
COc1cc2c(N3CCN(C(=O)Nc4ccc(OC(C)C)cc4)CC3)ncnc2cc1OCCCN1CCCCC1,residual activity,CSNK1G1 (human),98%
same,residual activity,NEK3 (human),103%
same,residual activity,MAP4K2 (human),104%
same,residual activity,DYRK2 (human),107%
same,residual activity,PRKCI (human),96.2%
same,residual activity,MAP3K5 (human),96.6%
same,residual activity,CAMKK1 (human),90.3%
same,residual activity,SYK (human),102%
same,residual activity,AKT1 (human),102%
same,residual activity,PRKCB1 (human),98.4%
same,residual activity,MARK3 (human),103%
same,residual activity,RPS6KA4 KD2 (human),120%
same,residual activity,CSNK1A1 (human),101%
same,residual activity,RPS6KA5 KD2 (human),109%
same,residual activity,PRKX (human),108%
same,residual activity,NEK11 (human),92.5%
same,residual activity,INSRR (human),98.9%
same,residual activity,MAPK10 (human),94.6%
same,residual activity,PRKCE (human),104%
same,residual activity,LIMK1 (human),88.6%
same,residual activity,EPHB3 (human),84.2%
same,residual activity,IRAK1 (human),96.1%
same,residual activity,EPHB1 (human),96.6%
same,residual activity,SRC (human),102%
same,residual activity,NEK1 (human),119%
same,residual activity,IRAK4 (human),96%
same,residual activity,FER (human),104%
same,residual activity,EPHA5 (human),104%
same,residual activity,PIM1 (human),97.8%
same,residual activity,RIPK2 (human),110%
same,residual activity,ADRBK2 (human),97.6%
same,residual activity,CDK3 CCNE1 (human),90.6%
same,residual activity,YES1 (human),86.6%
same,residual activity,CLK3 (human),93.4%
same,residual activity,PRKD1 (human),96.1%
same,residual activity,NEK6 (human),87.4%
same,residual activity,SRPK1 (human),98.2%
same,residual activity,GRK6 (human),105%
same,residual activity,TSSK2 (human),96.6%
same,residual activity,NLK (human),105%
